From article PMC11684029, “Discovery of VU6024578/BI02982816: An mGlu1 Positive Allosteric Modulator with Efficacy in Preclinical Antipsychotic and Cognition Models” (Journal of Medicinal Chemistry, 2024)

Tests used:
[1] = target: T1, 1A2 (Homo sapiens, UniProt P05177); test: inhibition of cytochrome P450 enzymes; assay type: in vitro ADME; conditions: human liver microsomes; read-out: CYP450 1A2 inhibition
T1 construct: 0.1 mg/mL human liver microsomes (HLM) and Substrate Mix; from tissue; host or cells: human liver microsomes
T1 sequence (P05177 whole entry): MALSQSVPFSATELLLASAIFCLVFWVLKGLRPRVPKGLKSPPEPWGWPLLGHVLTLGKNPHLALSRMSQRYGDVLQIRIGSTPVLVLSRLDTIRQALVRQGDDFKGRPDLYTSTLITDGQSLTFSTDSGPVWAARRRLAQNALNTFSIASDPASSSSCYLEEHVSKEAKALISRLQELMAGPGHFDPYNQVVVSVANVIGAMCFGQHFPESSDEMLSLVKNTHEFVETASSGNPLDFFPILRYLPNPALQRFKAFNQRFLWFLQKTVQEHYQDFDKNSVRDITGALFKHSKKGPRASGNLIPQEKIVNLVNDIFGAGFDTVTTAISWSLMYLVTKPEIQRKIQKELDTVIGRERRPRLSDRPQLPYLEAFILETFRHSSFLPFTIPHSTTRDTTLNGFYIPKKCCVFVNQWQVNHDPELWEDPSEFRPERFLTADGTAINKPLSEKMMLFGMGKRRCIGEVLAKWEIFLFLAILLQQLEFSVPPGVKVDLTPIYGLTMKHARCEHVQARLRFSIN
Description: (§1) A cocktail of substrates for cytochrome P450 enzymes (1A2: Phenacetin, 10 μM; 2C9: Diclofenac, 5 μM; 2D6: Dextromethorphan, 5 μM; 3A4: Midazolam, 2 μM) were mixed for cocktail analysis. For P450 2C19, the substrate stock (Mephenytoin, 40 μM)and substrate mix were prepared separately for discrete analysis. The positive control for pan-P450 inhibition (miconazole) was included alongside each test compound in analysis.
(§2) A reaction mixture of 100 mM Kpi, pH 7.4, 0.1 mg/mL human liver microsomes (HLM) and Substrate Mix is prepared and aliquoted into a 96-deepwell block. Test compound and positive control (in duplicate) were then added such that the final concentration of test compound ranged from 0.1–30 μM. The plate was vortexed briefly and then preincubated at 37 °C while shaking for 15 min. The reaction was initiated with the addition of NADPH (1 mM final concentration). The incubation continued for 8 min and the reaction quenched by 2x volume of cold acetonitrile containing internal standard (50 nM carbamazepine). The plate was centrifuged for 10 min (4000 rcf, 4 °C) and the resulting supernatant diluted 1:1 with water for LC/MS/MS analysis. A 12 point standard curve of substrate metabolites over the range of 0.98 nM to 2000 nM.
(§3) Samples were analyzed via electrospray ionization (ESI) on an AB Sciex API-4000 (Foster City, CA) triple-quadrupole instrument that was coupled with Shimadzu LC-10AD pumps (Columbia, MD) and a Leap Technologies CTC PAL autosampler (Carrboro, NC). Analytes were separated by gradient elution using a Fortis C18 3.0 × 50 mm, 3 μm column (Fortis Technologies Ltd., Cheshire, UK) thermostated at 40 °C. […]
(§4) The IC50 values for each compound were obtained for the individual CYP enzymes by quantitating the inhibition of metabolite formation for each probe substrate. A 0 μM compound condition (or control) was set to 100% enzymatic activity and the effect of increasing test compound concentrations on enzymatic activity could then be calculated from the % of control activity. […]

[2] = target: T2, 2C9 (Homo sapiens, UniProt P11712); test: inhibition of cytochrome P450 enzymes; assay type: in vitro ADME; conditions: human liver microsomes; read-out: CYP450 2C9 inhibition
T2 construct: 0.1 mg/mL human liver microsomes (HLM) and Substrate Mix; from tissue; host or cells: human liver microsomes
T2 sequence (P11712 whole entry): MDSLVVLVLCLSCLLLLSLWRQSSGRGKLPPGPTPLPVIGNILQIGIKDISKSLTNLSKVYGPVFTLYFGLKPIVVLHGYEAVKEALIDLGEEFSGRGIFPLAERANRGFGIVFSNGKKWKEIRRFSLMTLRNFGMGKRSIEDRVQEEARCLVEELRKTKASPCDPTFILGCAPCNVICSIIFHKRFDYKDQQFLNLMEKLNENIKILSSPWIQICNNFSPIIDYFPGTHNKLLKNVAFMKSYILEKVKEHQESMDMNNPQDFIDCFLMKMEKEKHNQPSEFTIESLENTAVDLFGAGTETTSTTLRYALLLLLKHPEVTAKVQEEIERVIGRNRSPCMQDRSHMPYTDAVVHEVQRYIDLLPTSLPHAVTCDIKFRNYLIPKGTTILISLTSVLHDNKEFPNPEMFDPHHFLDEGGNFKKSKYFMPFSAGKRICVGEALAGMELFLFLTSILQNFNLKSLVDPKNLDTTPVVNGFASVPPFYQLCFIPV
Description: as §1, §2, §3, §4

[3] = target: T3, 2D6 (Homo sapiens, UniProt P10635); test: inhibition of cytochrome P450 enzymes; assay type: in vitro ADME; conditions: human liver microsomes; read-out: CYP450 2D6 inhibition
T3 construct: 0.1 mg/mL human liver microsomes (HLM) and Substrate Mix; from tissue; host or cells: human liver microsomes
T3 sequence (P10635 whole entry): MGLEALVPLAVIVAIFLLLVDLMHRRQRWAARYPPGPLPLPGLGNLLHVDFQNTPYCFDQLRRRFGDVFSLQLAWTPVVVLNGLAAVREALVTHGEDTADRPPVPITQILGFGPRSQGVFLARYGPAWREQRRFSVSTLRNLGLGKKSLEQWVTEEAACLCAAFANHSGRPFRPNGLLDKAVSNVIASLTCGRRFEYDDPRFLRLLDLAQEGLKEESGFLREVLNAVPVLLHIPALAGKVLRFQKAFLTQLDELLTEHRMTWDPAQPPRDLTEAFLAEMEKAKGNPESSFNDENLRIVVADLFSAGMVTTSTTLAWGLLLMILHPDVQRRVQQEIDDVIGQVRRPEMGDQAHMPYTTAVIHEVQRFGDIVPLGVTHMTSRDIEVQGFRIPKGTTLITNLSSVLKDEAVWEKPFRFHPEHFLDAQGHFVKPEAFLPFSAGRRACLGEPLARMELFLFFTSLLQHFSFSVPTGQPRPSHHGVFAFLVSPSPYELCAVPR
Description: as §1, §2, §3, §4

[4] = test system: rats; test: rat AHL Cmax versus Ctrough study; assay type: in vivo
Description: Based on these positive behavioral data and the clear PK/PD relationship tied to achieving free brain levels at, or above, the mGlu1 PAM EC50, we next wanted to define the role of Cmax versus Ctrough drug (19d) concentrations in driving the PK/PD relationship. To accomplish this, pretreatment times and doses were calculated based upon previous PK (see Supporting Information Figure S3)[20] data to target free brain concentrations at and below the in vitro EC50 at the time of amphetamine challenge. Rats were pretreated with 3 mg/kg 19d or vehicle after habituation to the locomotor chambers are described in Figure 9A. Rats pretreated with 19d (10–60 mg/kg) or vehicle were administered compound prior to starting the amphetamine-induced hyperlocomotion experiment as depicted in Figure 9B-D. Ambulations were evaluated for 90 min post amphetamine treatment for all dosing groups. Pretreatment of 19d, chamber habituation, amphetamine treatment and ambulation recording times are outlined for each dosing group in Figure 9. Blood and brain samples were obtained at the end of testing (EOT) to determine 19d levels at the end of the study (Table 6).
The terminal free brain concentrations for this dosing group were 40 nM.
Figure 10 Amphetamine-induced hyperlocomotion in rats. A) 1 h pretreatment of 3 mg/kg 19d. B) 5 h pretreatment of 10 mg/kg 19d. C) 28.5 h pretreatment of 60 mg/kg 19d. Total ambulation from 95 to 180 min. *p < 0.05 compared to Vehicle + Amphetamine treated animals. TEXT PRINTED IN THE PICTURE: (A) 19d: Mean % reversal 27.3% * (3 mg/kg 19d + AMP) | (B) 19d: Mean % reversal 25.1% * (10 mg/kg 19d + AMP) | (C) 19d: Mean % reversal 7.3% (60 mg/kg 19d + AMP) DOUBTS OF THE COPYIST ABOUT THIS PICTURE: 19d, panel A, Mean % reversal: small print, 27.3% could be 27.8% / 19d, panel B, Mean % reversal: small print, 25.1% could be 26.1% / 19d, panel C, Mean % reversal: small print, 7.3% could be 7.8%

[5] = test system: PDGF; test: Eurofins radioligand binding panel; set-up: species or system mouse; conditions: agonist radioligand
Excerpt: (§5) Table S1. Eurofins Lead Profiling Screen Data
(§6) This is a radioligand binding panel of 80 targets including GPCRs, ion channels, transporters and nuclear hormones. Biochemical assay results are presented as the percent inhibition of specific […]
(§7) Results showing an inhibition or stimulation higher than 50% are considered to represent significant effect and are highlighted

[6] = test system: sst (non-selective); test: Eurofins radioligand binding panel; set-up: species or system mouse; conditions: agonist radioligand
Excerpt: as §5, §6, §7

[7] = target: 5-HT2B (Homo sapiens, UniProt P41595); test: Eurofins radioligand binding panel; set-up: Eurofins; conditions: agonist radioligand
5-HT2B, sequence (P41595 whole entry): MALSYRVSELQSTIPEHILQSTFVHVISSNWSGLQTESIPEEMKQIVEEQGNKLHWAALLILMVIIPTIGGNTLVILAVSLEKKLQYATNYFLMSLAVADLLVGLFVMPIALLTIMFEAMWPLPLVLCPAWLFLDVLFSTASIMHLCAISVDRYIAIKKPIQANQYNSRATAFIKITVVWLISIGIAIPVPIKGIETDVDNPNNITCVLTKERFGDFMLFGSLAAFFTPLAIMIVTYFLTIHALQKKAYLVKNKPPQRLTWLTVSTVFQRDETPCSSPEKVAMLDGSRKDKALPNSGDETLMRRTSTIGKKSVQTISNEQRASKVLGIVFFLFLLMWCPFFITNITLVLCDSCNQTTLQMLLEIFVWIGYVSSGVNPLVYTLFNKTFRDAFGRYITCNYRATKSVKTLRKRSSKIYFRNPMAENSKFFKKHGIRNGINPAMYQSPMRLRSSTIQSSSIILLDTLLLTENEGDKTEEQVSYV
Excerpt: as §5, §6, §7

Compound: Cn1nc(-c2ccnn2C)cc1CNC(=O)c1cc(-c2ccco2)ccc1Cl [Compound 19d, 2-Chloro-N-((1,2′-dimethyl-1H,2’H-[3,3′-bipyrazol]-5-yl)methyl)-5-(furan-2-yl)benzamide]
- IC50 [1]: 17 µM
- IC50 [2]: 6.4 µM
- IC50 [3]: 28 µM
- effect on AHL, in words ([4]; 3 mg/kg, 1 h prior to amphetamine): significantly reduced
- effect on AHL, in words ([4]; 10 mg/kg, 5 h before amphetamine): significantly reduced
- reduction of locomotor activity after amphetamine, in words ([4]; 60 mg/kg, 28.5 h before amphetamine): not demonstrated
- % Inhibition at 10 µM [5]: -2%
- % Inhibition at 10 µM [6]: -12%
- inhibition at 10 µM [7]: 67%
